Experimental data published in US10323007B1, “N2N N4-disubstituted quinazoline-2,4-diamines and uses thereof” (University of South Florida, priority 2016, dated 2019).
Converted amounts (≈) assume the structure as drawn. Read-outs that look alike come from different tables or passages of the source.

Key:
A. baumannii 1403 [1] = test: MIC assay, strain 1403; assay type: cell-based, Acinetobacter baumannii; details: Acinetobacter baumannii, strain 1403
Protocol: (§1) MIC and MBC assays were performed in this study as documented by us previously.^17,23,24,25 The A. baumannii strains used are detailed in Table 7.

A. baumannii 1646 [2] = test: MIC assay, strain 1646; assay type: cell-based, Acinetobacter baumannii; details: Acinetobacter baumannii
Protocol: as §1

A. baumannii 1649 [3] = test: MIC assay, strain 1649; assay type: cell-based, Acinetobacter baumannii; details: Acinetobacter baumannii, strain 1649
Protocol: as §1

A. baumannii 1650 [4] = test: MIC assay, strain 1650; assay type: cell-based, Acinetobacter baumannii; details: Acinetobacter baumannii, strain 1650
Protocol: as §1

A. baumannii 1651 [5] = test: MIC assay, strain 1651; assay type: cell-based, Acinetobacter baumannii; details: Acinetobacter baumannii, strain 1651
Protocol: as §1

A. baumannii 1652 [6] = test: MIC assay, strain 1652; assay type: cell-based, Acinetobacter baumannii; details: Acinetobacter baumannii, strain 1652
Protocol: as §1

A. baumannii 1403 [7] = test: minimal bactericidal concentration (MBC) assay, strain 1403; assay type: cell-based; details: Acinetobacter baumannii, Table 8, read-out: MBC90 1403
Description: (§2) Lead quinazolines 4, 5, 26, 29, 27, and 30 were selected to be further evaluated for antimicrobial effects. The first assay utilized was a minimal bactericidal concentration (MBC) assay, to assess whether leads compounds were bacteriostatic or bactericidal. The six lead agents were screened to identify their MBC90 towards each of the six A. baumannii isolates used in the SAR studies (Table 8), however for simplicity only the representative data for isolate 1646 is detailed below (Table 6). […] Further to this, we were able to obtain complete eradication of bacterial growth for these two compounds at 1 μM for 24 and 5 μM for 25.
as §1

A. baumannii 1646 [8] = test: minimal bactericidal concentration (MBC) assay, strain 1646; assay type: cell-based, Acinetobacter baumannii
Description: as §2, §1

A. baumannii 1649 [9] = test: minimal bactericidal concentration (MBC) assay, strain 1649; assay type: cell-based; details: Acinetobacter baumannii, Table 8, read-out: MBC90 1649
Description: as §2, §1

A. baumannii 1650 [10] = test: minimal bactericidal concentration (MBC) assay, strain 1650; assay type: cell-based; details: Acinetobacter baumannii, Table 8, read-out: MBC90 1650
Description: as §2, §1

A. baumannii 1651 [11] = test: minimal bactericidal concentration (MBC) assay, strain 1651; assay type: cell-based; details: Acinetobacter baumannii, Table 8, read-out: MBC90 1651
Description: as §2, §1

A. baumannii 1652 [12] = test: minimal bactericidal concentration (MBC) assay, strain 1652; assay type: cell-based; details: Acinetobacter baumannii, Table 8, read-out: MBC90 1652
Description: as §2, §1

[13] = tested on: A. baumannii 1403 biofilm; test: biofilm eradication determination assay, strain 1403; assay type: cell-based, Acinetobacter baumannii; details: 90% biofilm eradication, Table 8
Protocol: (§3) These assays were performed as described by us previously,^26,24 as follows. Each of the A. baumannii strains were grown overnight in Mueller Hinton Broth (MHB). The next day these were used to seed fresh MHB to an OD600 of 0.5, with 150 μL then added to the wells of a 96 well plate and grown for 24 hours at 37° C. After 24 hours, the planktonic bacteria were carefully removed and fresh MHB was added with increasing concentrations of lead quinazolines. After incubation at 37° C. for 24 hours, planktonic cells were removed and biofilms were washed three times with phosphate buffered saline (PBS). Biofilms were then resuspended in PBS and plated for cell viability on tryptic soy agar. Biofilm recovery was assessed compared to no drug controls, and determined as percent eradication. This was used to determine MBEC90 values (Minimal Biofilm Eradication Concentration), where the viability of cells within the biofilm was reduced by 90%.

[14] = tested on: A. baumannii 1646 biofilm; test: biofilm eradication determination assay, strain 1646; assay type: cell-based, Acinetobacter baumannii
Protocol: as §3

[15] = tested on: A. baumannii 1649 biofilm; test: biofilm eradication determination assay, strain 1649; assay type: cell-based, Acinetobacter baumannii; details: 90% biofilm eradication, Table 8
Protocol: as §3

[16] = tested on: A. baumannii 1650 biofilm; test: biofilm eradication determination assay, strain 1650; assay type: cell-based, Acinetobacter baumannii; details: 90% biofilm eradication, Table 8
Protocol: as §3

[17] = tested on: A. baumannii 1651 biofilm; test: biofilm eradication determination assay, strain 1651; assay type: cell-based, Acinetobacter baumannii; details: 90% biofilm eradication, Table 8
Protocol: as §3

[18] = tested on: A. baumannii 1652 biofilm; test: biofilm eradication determination assay, strain 1652; assay type: cell-based, Acinetobacter baumannii; details: 90% biofilm eradication, Table 8
Protocol: as §3

A. baumannii strain 1403 = assay type: cell-based, Acinetobacter baumannii; details: serial passage, 8 days, start 0.5× MIC
Protocol: An important attribute of novel antibiotics is the ability to fend off the development of resistance towards their effects. To assess this capacity, A. baumannii strains were incubated overnight with 0.5× MIC of each of the frontrunners. The next day cells were washed and used to inoculate fresh media that contained a two-fold increase in drug. This was repeated for a total of 8 days, alongside sulfamethoxazole (SMX) and trimethoprim (TMP) controls, both of which target the same pathway as our lead agents (FIG. 2).
In order to test potential resistance towards the quinazolines, a serial passage assay was performed alongside control compounds (Sulfamethoxazole and Trimethoprim), as described by us previously.^24 A. baumannii strain 1403 was grown overnight in LB media at 37° C. The next day cultures were diluted 1:100 in fresh media and seeded into a 96-well plate. Lead quinazolines or control agents were added to respective wells at half MIC concentrations. […] These were then grown overnight, and the procedure repeated for a total of eight days.

human HepG2 cells = assay type: cell-based
Protocol: Cytotoxicity assays were performed using human HepG2 cells (human liver epithelial with hepatocellular carcinoma), as described by us previously.^17,24 Cells were cultured in Dulbecco's modified eagle medium (DMEM), supplemented with 10% fetal bovine serum and 1% penicillin-streptomycin for 3 days at 37° C. and 5% CO2. Cells were then diluted to 1×10^5 ml^−1 using fresh DMEM and added to 96 well tissue culture plates at a volume of 100 μL. Plates were incubated for 24 hours at 37° C. and 5% CO2, allowing the cells to adhere to the plastic. […] Plates were then incubated for 48 hours at 37° C. and 5% CO2. After 48 hours the DMEM was removed and 100 μL of new media was added containing MTT (3-(4, 5-dimethylthiazol-2-yl)-2, 5-diphenyltetrazolium bromide), followed by incubation for four hours at 37° C. and 5% CO2. […] Lead compounds were solvated in 100% DMSO for these studies, which served as the negative control. LD50 values were determined for each compound by comparison to vehicle only controls.

A. baumannii 1646 [19] = test: murine model of lethal peritonitis; assay type: in vivo, mice; details: 30 mg kg^-1 intraperitoneal, one hour post challenge, 5 days
Protocol: As a final assessment, we used a murine model of lethal A. baumannii infection to determine the efficacy of quinazolines in vivo. This was performed using frontrunner 5, which had the most promising properties from all of our biological testing. Accordingly, mice were inoculated with a lethal dose of A. baumannii via intraperitoneal injection on the right side of the abdomen. One hour post challenge, mice were treated with an intraperitoneal injection of 2 mg kg^−1 of frontrunner 5 on the left side of the abdomen. As a control, we also performed similar testing using 30 mg kg^−1 of tigecycline, which we already know our test strain to be susceptible to in vitro.
Characteristics of pre-moribund state include: hunched posture, rapid, shallow and/or labored breathing, ruffled fur, lethargy, failure to respond to stimuli, soiled anogenital area, paralysis, paresis, head tilt, circling, vocalizations, non-purposeful movements, and/or were unable to eat or drink. Those mice reaching this state prior to the completion of the 5-day infection period were euthanized. The number of mice surviving between control and treatment groups was compared and analyzed for statistical significance using a log-rank (Mantel-Cox) test.

[20] = tested on: A. baumannii dihydrofolate reductase (DHFR) enzyme; test: tetrahydrofolic acid in vitro rescue assay; assay type: cell-based; details: tetrahydrofolic acid 0-225 μM; 24 hours incubation
Protocol: To evaluate the effect quinazolines have on DHFR reduction of dihydrofolic acid, a tetrahydrofolic acid assay was performed as described by us previously.^17 A. baumannii strain 1403 was grown overnight in LB, and then diluted 1:1000 into fresh media. These cultures were then seeded into a sterile 96-well plate with tetrahydrofolic acid added at concentrations ranging from 0 to 225 μM. […] MICs were determined and used to assess whether the addition of tetrahydrofolic acid rescued A. baumannii growth from quinazoline inhibition. Assays were repeated in triplicate, alongside trimethoprim and sulfamethoxazole controls.

Protocol for human red blood cells: A hemolysis assay was performed using whole human blood (Bioreclamation), as described previously.^24 Briefly, human red blood cells (hRBCs) were resuspended in 20% v/v 1×HA buffer (4.25 mL 10% NaCl; 1 mL CaCl2) in 50 mL sterile water), before lead compounds were added at 2 μM, 10 μM and 20 μM, in a final volume of 100 μL. Cells were incubated for 15 minutes at 37° C. before being centrifuged at 5,500 g for 1 minute to pellet non-lysed hRBCs. The supernatant was removed, added to a 96-well Microtiter plate and the OD543 read using a BioTek Synergy2 plate reader. The negative control was vehicle only (DMSO), and the positive control was 1% triton X-100.

For Triton X-100, the “lysis of human red blood cells” value (human red blood cells) was 100%.
`CNc1nc(NCc2ccccc2)nc2ccc(Br)cc12` [Compound 4, N^2-Benzyl-6-bromo-N^4-methylquinazoline-2,4-diamine] was tested, and the MIC (A. baumannii 1403 [1]; Table 2, read-out: 1403 MIC) was 50 µM (≈ 17.2 µg/mL), the MIC (A. baumannii 1403 [1]; lead quinazolines, Table 8, read-out: MIC 1403) was 25 µM (≈ 8.58 µg/mL) and the MIC (A. baumannii 1646 [2]; Table 6, representative data for isolate 1646, read-out: MIC) was 0.5 µM (≈ 0.172 µg/mL). It also gave an MIC (A. baumannii 1646 [2]; strain 1646, Table 2, read-out: 1646 MIC) of 2 µM (≈ 0.686 µg/mL), an MIC (A. baumannii 1646 [2]; strain 1646, lead quinazolines, Table 8, read-out: MIC 1646) of 0.5 µM (≈ 0.172 µg/mL) and an MIC (A. baumannii 1649 [3]; Table 2, read-out: 1649 MIC) of 12 µM (≈ 4.12 µg/mL). For the same compound, the MIC (A. baumannii 1649 [3]; lead quinazolines, Table 8, read-out: MIC 1649) was 11 µM (≈ 3.78 µg/mL), the MIC (A. baumannii 1650 [4]; Table 2, read-out: 1650 MIC) was 15 µM (≈ 5.15 µg/mL) and the MIC (A. baumannii 1650 [4]; lead quinazolines, Table 8, read-out: MIC 1650) was 12 µM (≈ 4.12 µg/mL). It also gave an MIC (A. baumannii 1651 [5]; Table 2, read-out: 1651 MIC) of 8 µM (≈ 2.75 µg/mL), an MIC (A. baumannii 1651 [5]; lead quinazolines, Table 8, read-out: MIC 1651) of 5 µM (≈ 1.72 µg/mL) and an MIC (A. baumannii 1652 [6]; Table 2, read-out: 1652 MIC) of 20 µM (≈ 6.86 µg/mL). It also gave an MIC (A. baumannii 1652 [6]; lead quinazolines, Table 8, read-out: MIC 1652) of 20 µM (≈ 6.86 µg/mL), an MBC (A. baumannii 1403 [7]) of 22 µM (≈ 7.55 µg/mL) and an MBC (A. baumannii 1646 [8]; Acinetobacter baumannii, 1646, strain 1646, Table 8 and text, read-out: MBC90 1646) of 0.81 µM (≈ 0.278 µg/mL). For the same compound, the MBC (A. baumannii 1646 [8]; Acinetobacter baumannii, Table 6, representative data for isolate 1646, read-out: MBC90) was 0.8 µM (≈ 0.275 µg/mL), the MBC (A. baumannii 1649 [9]) was 4.7 µM (≈ 1.61 µg/mL) and the MBC (A. baumannii 1650 [10]) was 15 µM (≈ 5.15 µg/mL). For the same compound, the MBC (A. baumannii 1651 [11]) was 2.1 µM (≈ 0.721 µg/mL), the MBC (A. baumannii 1652 [12]) was 9.7 µM (≈ 3.33 µg/mL) and the “MBEC90 1403” value [13] was 26 µM. For the same compound, the MBEC90 ([14]; Table 6, representative data for isolate 1646) was 3.3 µM, the “reduction in biofilm viability” value ([14]; at 50 μM, strain 1646) was 3.6 log and the “MBEC90 1646” value ([14]; strain 1646, 90% biofilm eradication, Table 8 and text) was 3.3 µM. The “MBEC90 1649” value [15] was 44.33 µM, the “MBEC90 1650” value [16] was 9.61 µM and the “MBEC90 1651” value [17] was 37.34 µM. For the same compound, the “MBEC90 1652” value [18] was over 100 µM, the “increase in MIC over the 8-day test period” value (A. baumannii strain 1403) was 4 fold and the HepG2 cell viability (human HepG2 cells; at 25 μM (highest concentration tested)) was 43%. For the same compound, the “LD50(HepG2)” value (human HepG2 cells; human, 48 h) was 23 µM.
In the case of `CN(C)c1cc(NC(=O)CNC(C)(C)C)c(O)c2c1C[C@H]1C[C@H]3[C@H](N(C)C)C(O)=C(C(N)=O)C(=O)[C@@]3(O)C(O)=C1C2=O` [tigecycline, reference compound], the “survival rate of infected animals” value (A. baumannii 1646 [19]) is reported as 66%.
`CNc1nc(NCc2ccccc2)nc2ccc(C(C)C)cc12` [Compound 25, N^2-Benzyl-6-isopropyl-N^4-methylquinazoline-2,4-diamine] gave an MIC (A. baumannii 1403 [1]; Tables 1, 3, 4, 5 and footnotes, read-out: 1403 MIC) of over 50 µM, an MIC (A. baumannii 1646 [2]; strain 1646, Tables 1, 3, 4, 5 and footnotes, read-out: 1646 MIC) of 25 µM (≈ 7.66 µg/mL) and an MIC (A. baumannii 1649 [3]; Tables 1, 3, 4, 5 and footnotes, read-out: 1649 MIC) of 35 µM (≈ 10.7 µg/mL). The MIC (A. baumannii 1650 [4]; Tables 1, 3, 4, 5 and footnotes, read-out: 1650 MIC) was over 50 µM, the MIC (A. baumannii 1651 [5]; Tables 1, 3, 4, 5 and footnotes, read-out: 1651 MIC) was 35 µM (≈ 10.7 µg/mL) and the MIC (A. baumannii 1652 [6]; Tables 1, 3, 4, 5 and footnotes, read-out: 1652 MIC) was over 50 µM. The “concentration giving complete eradication of bacterial growth” value (A. baumannii 1646 [8]; isolate 1646) was 5 µM and the “THF concentration sufficient to rescue bacterial growth” value [20] was 10 µM.
